Results from patent US20200190172A1, “METHOD FOR DIAGNOSING/DETERMINING THE EFFECTIVENESS OF TREATMENT FOR DEPRESSION” (Centre National De La Recherche Scientifique, priority 2016, published 2020).
Where no end group is shown, it is not given here.

T1: TREK-1 potassium channel (Mus musculus, UniProt P97438)
T1 construct: host or cells: living mice (endogenous channel)
T1 sequence (P97438 1-426): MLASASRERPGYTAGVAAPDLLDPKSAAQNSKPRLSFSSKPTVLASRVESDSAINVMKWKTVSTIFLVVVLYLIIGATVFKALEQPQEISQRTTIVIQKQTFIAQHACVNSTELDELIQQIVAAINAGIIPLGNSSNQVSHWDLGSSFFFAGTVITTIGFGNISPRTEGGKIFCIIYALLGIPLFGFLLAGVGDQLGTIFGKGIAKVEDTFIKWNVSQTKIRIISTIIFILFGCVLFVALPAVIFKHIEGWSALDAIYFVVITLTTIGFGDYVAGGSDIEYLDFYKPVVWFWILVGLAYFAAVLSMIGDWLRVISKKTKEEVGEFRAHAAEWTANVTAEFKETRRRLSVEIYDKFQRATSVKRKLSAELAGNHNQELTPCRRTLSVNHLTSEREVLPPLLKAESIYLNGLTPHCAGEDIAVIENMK


How the values were obtained:
[1] = tested on: anti-spadin antibodies (AB1 polyclonal antibody); assay: AlphaLISA competition assay: biotinylated spadin / anti-spadin antibody displaced by peptides; assay type: binding, rabbit; conditions: for recognition by the anti-spadin antibodies (AB1): AlphaLISA, FIG. 1A-1C; for IC50: competition with 10 nM biotinylated spadin, antibody 1:1000
Description: The antibody used was the AB1 antibody, as mentioned above.
When two microbeads (acceptors and donors) were in close proximity, the signal was produced by a molecular interaction between the binding partners on the beads. The propeptide present in the serum sample was able to interfere with this interaction leading to competition. […] After the addition of donor and acceptor beads and an additional incubation for 2 hours at room temperature, the plates were read using an Enspire reader (Perkin). […] The quantity of propeptide was determined from its signal percent inhibition and calculated using the standard curve.

mice = assay: Porsolt Forced Swim Test (FST); assay type: in vivo, mice (C57BL/6J); conditions: for Antidepressant activity: Porsolt Forced Swim Test, intravenous injection, mice; for immobility time compared to saline solution: FST, final 4 min of 6 min, p<0.0001 spadin, 12-27 PE, 22-28 PE, p=0.0026 14-25 PE
Description: The experiments were performed on males of 20-25 g C57BL/6J of 8-10 weeks old (January France Elevage) in accordance with the policies on the welfare and use of laboratory animals set out in European Community Directive 2010/63/EU. The local ethics committee (CIEPAL) has approved the protocols used in this study (Protocol Number 00.893.02).
After intravenous injection of saline solution or various tested peptides, the mice (n=10-12 per group) were placed individually in a cylinder (height: 30 cm, diameter: 15 cm) filled with water to a depth of 12 cm (temperature: 22±1° C.) for 6 min. The total immobility time was recorded during the final 4 min (Porsolt et al., 1977).

AB2 polyclonal antibody = assay: Recognition of PE fragments by AB2 polyclonal antibody (FIG. 1A); assay type: binding, rabbit
Source text: FIG. 1: FIG. 1A is a diagram representing the structure/recognition relationships of the antibodies AB1 and AB2 according to the different fragments. […] FIGS. 1B and 1C represent the relative affinities for spadin, PE and analogs assayed by the detection method.
In particular, antibodies AB1 and AB2 were obtained by injecting into two rabbits, namely Oryctolagus cuniculus, spadin coupled to KLH (Keyhole limpet hemocyanin protein) (AB1) or mini-spadin (22-28 PE) coupled to KLH (AB2) on day 0, DO (1 mg), day 7, D7 (1 mg), day 14, D14 (1 mg) and day 29, D29 (1 mg). Blood samples, namely 20 ml, were taken on day 27 (D27) and day 42 (D42). The polyclonal serum was obtained by centrifuging at 1200×g for 10 min. The polyclonal serum corresponding to the supernatant was recovered. The immune response was checked by ELISA for each antibody. The antibodies contained in the serum were kept at −20° C.

TREK-1 potassium channel = target: T1, TREK-1 potassium channel; conditions: injected intravenously or intraperitoneally into mice; by inhibiting TREK-1 channel activity; cited from earlier work
[2] = Stability of PE in human serum (AlphaLISA); assay type: in vitro ADME; conditions: serum with or without EDTA, room temperature (22° C.), 24 h
Description: FIG. 3: FIG. 3 is a histogram representing the stability of PE in the human serum. Serums with or without EDTA (n=7 for each matrix) from healthy blood donors were tested for their stability at room temperature for 24 h. The PE concentration for each incubation period was determined using an AlphaLISA assay method. The average concentrations at the different points in time are expressed as an average ±SEM.
The antidepressant activity of the analogs was tested using the FST. […] (Ordinarily ANOVA, F5.54=20.21, **** p<0.0001 for spadin, 12-27 PE and 22-28 fragments compared to saline mice treated with a saline solution, ** p=0.0026 for 14-25 PE fragment compared to saline mice treated with a saline solution; error bars, average ±SEM). […] A study of the stability of PE in human serum was carried out. FIG. 3 is a histogram representing the stability of PE in human serum. Serums with or without EDTA (n=7 for each matrix) from healthy blood donors were tested for their stability at room temperature (22° C.) for 24 h. The PE concentration for each incubation period was determined using an AlphaLISA assay method. In FIG. 3, the average concentrations at the different time points are expressed as an average ±SEM. […] The unpaired t test for the PE concentration between serum and EDTA-serum indicated no significant difference for each time.

[3] = target: polyclonal antibodies (AB1) directed against the peptide of sequence … (Spadin); assay: AlphaLISA competition, unlabelled peptide against 10 nM biotinylated spadin on AB1 (1:1000)
[4] = target: polyclonal antibodies (AB1) directed against the peptide of sequence … (Spadin); assay: AlphaLISA competition against biotinylated spadin (differs from Table 2)

Molecule | recognition by the anti-spadin antibodies (AB1) [1] | IC50 [1] | Antidepressant activity (mice) | IC50 [3] | also measured
QDRLDAPPPPAAPLPR [1-16 PE, peptide fragment 1 to 16 of the propeptide] | not recognized | > 1000 nM | No |  | 
APLPRWSGPIGVSWGLR [spadin] | recognized | 2.5 nM | showed an antidepressant activity |  | binding by AB2 polyclonal antibody (AB2 polyclonal antibody): bound; antidepressant (AD) activities (TREK-1 potassium channel): powerful antidepressant (AD) activities; recognition by the anti-spadin antibodies (AB1) ([1]; listed as SEQ ID NO 2): binds; immobility time compared to saline solution (mice): shorter immobility time; Antidepressant activity (mice; listed as spadin 12-28 PE): Yes
GVSWGLR [22-28 PE, peptide fragment 22 to 28 of the propeptide] | not recognized | > 1000 nM | Yes |  | binding by AB2 polyclonal antibody (AB2 polyclonal antibody): bound; recognition by the anti-spadin antibodies (AB1) ([1]; listed as SEQ ID NO 6): sole exception; immobility time compared to saline solution (mice): shorter immobility time
WSGPI [SEQ ID NO 5] | binds |  |  |  | 
QDRLDAPPPPAAPLPRWSGPIGVSWGLRAAAAGGAFPRGGRWRR [PE] |  |  |  |  | stability of PE in human serum [2]: stability of the SLI measurement for 24 hours at room temperature
APLPRWSGPIGVSWGL [12-27 PE, peptide fragment 12 to 27 of the propeptide] | recognized | 1.73 nM | showed an antidepressant activity and Yes |  | recognition by the anti-spadin antibodies (AB1) ([1]; listed as SEQ ID NO 3): binds; immobility time compared to saline solution (mice): shorter immobility time
C[C@H](N)C(=O)NCC(=O)N[C@H]1CSSC[C@@H](C(=O)O)NC(=O)[C@H](CO)NC(=O)[C@H]([C@@H](C)O)NC(=O)[C@H](Cc2ccccc2)NC(=O)[C@H]([C@@H](C)O)NC(=O)[C@H](CCCCN)NC(=O)[C@H](Cc2c[nH]c3ccccc23)NC(=O)[C@H](Cc2ccccc2)NC(=O)[C@H](Cc2ccccc2)NC(=O)[C@H](CC(N)=O)NC(=O)[C@H](CCCCN)NC1=O [somatostatin-14, reference compound] | not recognized |  |  |  | recognition by the anti-spadin antibodies (AB1) ([1]; listed as somatostatin): incapable of interfering
LPRWSGPIGVSW [14-25 PE, peptide fragment 14 to 25 of the propeptide] | recognized | 3.44 nM | showed an antidepressant activity and Yes |  | recognition by the anti-spadin antibodies (AB1) ([1]; listed as SEQ ID NO 4): binds; immobility time compared to saline solution (mice): shorter immobility time
QDRLDAPPPPAAPLPRWSGPIGVSWGLRAAAAGGAFPRGGRWRR [Propeptide (PE) 44AA] |  |  |  | 2.18 nM | 
APLPRWSGPIGVSWGLR [spadin 12-28 PE] |  |  |  | 2.5 nM | 
APLPRWSGPIGVSWGL [12-27 PE] |  |  |  | 1.73 nM | IC50 [4]: 3.44 nM
QDRLDAPPPPAAPLPR [1-16 PE (pro-spadin)] |  |  |  | > 1000 nM | 
GVSWGLR [22-28 PE] |  |  |  | > 1000 nM | 
LPRWSGPIGVSW [14-25 PE] |  |  |  | 3.44 nM | IC50 [4]: 1.73 nM
